The record followed here is ChEMBL document CHEMBL1201862, “PubChem BioAssay data set” (2004).

Test systems include NCI-H226; U-251; SN12C; RXF 393; HOP-92; M14; SF-268; COLO 205; HCC 2998; SW-620; A549; SNB-19; MOLT-4; DU-145; K562; SK-MEL-28; EKVX; HOP-62; OVCAR-3; NCI-H522.
Common to all, as to test: growth of human tumour cells (NCI), 48 h

Structures are written as SMILES.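 How tested: cells in 96-well plates exposed to compound for 48 hours at five concentrations. GI50: concentration for 50% inhibition of growth.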 Calls of active or inactive are those of the source. Rule as the data show it: active = GI50 up to about 1.1 µM and inactive = higher. Non-standard residues stand in square brackets, D forms with d. Residues, ends and D or L forms follow the SMILES beside them. ξ: configuration not given here. *: point of attachment. NMeF = CN[C@@H](Cc1ccccc1)C(=O)O; ξNMeV = CNC(C(=O)O)C(C)C; Boc = CC(C)(C)OC(=O)*; OBn = c1ccc(CO*)cc1 Bounds are passed on as bounds.

Consider `Cc1ccccc1C1OC1C(=O)c1ccccc1N` (configuration not stated), for which the GI50 is > 100 µM (inactive) in the assay on NCI-H226; > 100 µM (inactive) in the assay on U-251; 78.7 µM (inactive) in the assay on SN12C; 90.4 µM (inactive) in the assay on RXF 393; > 100 µM (inactive) with HOP-92; 47.3 µM (inactive) with M14. Besides, the GI50 was > 100 µM (inactive) in the assay on SF-268; 87.3 µM (inactive) in the assay on COLO 205; > 100 µM (inactive) with HCC 2998; 80.4 µM (inactive) with SW-620; 48 µM (inactive) in the assay on A549; 56.4 µM (inactive) in the assay with SNB-19. The GI50 in the assay with MOLT-4 was 39.3 µM (inactive); in the assay with DU-145, > 100 µM (inactive); in the assay with K562, 56.8 µM (inactive); in the assay with SK-MEL-28 it was > 100 µM (inactive).
`Cc1ccccc1N/C(N)=N/C#N`: the GI50 is > 100 µM (inactive) in the assay with U-251; > 100 µM (inactive) with EKVX; > 100 µM (inactive) in the assay on SN12C; > 100 µM (inactive) in the assay on RXF 393; > 100 µM (inactive) with HOP-62; 97.7 µM (inactive) with HOP-92. Further, the GI50 with M14, in the assay with SF-268, in the assay on COLO 205, with HCC 2998, with SW-620 and in the assay on A549 was > 100 µM (inactive) each time. Moreover, the GI50 in the assay on SNB-19, in the assay with MOLT-4, with DU-145, in the assay on K562 and with SK-MEL-28 was > 100 µM (inactive) in each case.
Take `C[N+]1([O-])CCC(O)(C2CC2)CC1` (configuration not stated): the GI50 in the assay with NCI-H226, in the assay with U-251, with EKVX, with SN12C, in the assay on RXF 393 and in the assay on HOP-62 was > 100 µM (inactive) throughout. Also, the GI50 in the assay with M14, with SF-268, with COLO 205, in the assay with HCC 2998, in the assay on SW-620 and in the assay with A549 was > 100 µM (inactive) throughout. The GI50 with SNB-19 was > 100 µM (inactive); in the assay with OVCAR-3, > 100 µM (inactive); in the assay with MOLT-4, > 100 µM (inactive); in the assay with DU-145, > 100 µM (inactive); in the assay on K562 it was > 100 µM (inactive); in the assay with SK-MEL-28 it was 0.0399 µM (active).
As for `COc1cc2oc(=O)cc(C)c2c(OC)c1OC(C)=O`, the GI50 in the assay on NCI-H226, with U-251, in the assay on EKVX, in the assay on SN12C, in the assay on HOP-62 and in the assay with M14 was > 100 µM (inactive) throughout. Besides, the GI50 in the assay with SF-268, in the assay on COLO 205, in the assay with SW-620, in the assay with A549, with SNB-19 and in the assay on OVCAR-3 was > 100 µM (inactive) in each case. Besides, the GI50 with MOLT-4, in the assay on DU-145, with K562 and in the assay on SK-MEL-28 was > 100 µM (inactive) each time.
`C=CCCCCCC(O)C(O)C/C=C\C/C=C\CC` (configuration not stated): the GI50 with NCI-H226 is > 18.8 µM (inactive); in the assay on U-251 it was > 18.8 µM (inactive); in the assay with EKVX, > 18.8 µM (inactive); in the assay on SN12C, > 18.8 µM (inactive); in the assay with RXF 393, > 18.8 µM (inactive); with HOP-62, > 16.8 µM (inactive). Further, the GI50 with HOP-92, with M14, in the assay on NCI-H522, in the assay with SF-268, in the assay with COLO 205 and with HCC 2998 was > 18.8 µM (inactive) throughout. For the same molecule, the GI50 is > 18.8 µM (inactive) in the assay on SW-620; > 18.8 µM (inactive) in the assay with A549; > 18.8 µM (inactive) in the assay on SNB-19; > 18.8 µM (inactive) in the assay with OVCAR-3; > 14.9 µM (inactive) with MOLT-4; > 12 µM (inactive) in the assay on K562. Besides, in the assay with SK-MEL-28, the GI50 was > 18.8 µM (inactive).
Take `N#Cc1nc(/C=C/c2cccs2)oc1N`: the GI50 was 95.3 µM (inactive) in the assay with U-251; 33.7 µM (inactive) in the assay on EKVX; > 100 µM (inactive) in the assay on SN12C; > 100 µM (inactive) with RXF 393; > 100 µM (inactive) with HOP-62; 35.8 µM (inactive) with HOP-92. Also, the GI50 in the assay on M14 was 97.5 µM (inactive); in the assay with SF-268 it was > 100 µM (inactive); in the assay with SW-620 it was > 100 µM (inactive); in the assay on A549, > 100 µM (inactive); with SNB-19, > 100 µM (inactive); with MOLT-4, 45 µM (inactive). The GI50 is > 100 µM (inactive) in the assay on DU-145, 82.4 µM (inactive) with K562 and > 100 µM (inactive) in the assay on SK-MEL-28.
Regarding `Cc1cc(C)c(N[S+]([O-])c2cccc([N+](=O)[O-])c2)c(C)c1` (configuration not stated), the GI50 with NCI-H226, in the assay with U-251, with SN12C, with RXF 393, with HOP-62 and in the assay with HOP-92 was > 100 µM (inactive) in each case. The GI50 with M14, in the assay with SF-268, in the assay with COLO 205, with SW-620, in the assay on A549 and in the assay on SNB-19 was > 100 µM (inactive) throughout. Besides, the GI50 in the assay on OVCAR-3, in the assay with MOLT-4, with DU-145, in the assay on K562 and with SK-MEL-28 was > 100 µM (inactive) throughout.
With `CCN(CC)CCCNC(=O)c1cc2cc(NC(=O)c3cc4cc([N+](=O)[O-])ccc4[nH]3)ccc2[nH]1`, the GI50 in the assay with NCI-H226 is > 100 µM (inactive); with U-251, > 10 µM (inactive); in the assay with EKVX it was > 100 µM (inactive); in the assay on SN12C it was > 100 µM (inactive); in the assay on RXF 393, > 100 µM (inactive); in the assay on HOP-62 it was 28.6 µM (inactive). In addition, the GI50 was 37.5 µM (inactive) with HOP-92; > 100 µM (inactive) in the assay on M14; > 100 µM (inactive) with SF-268; > 100 µM (inactive) in the assay on COLO 205; > 100 µM (inactive) with HCC 2998; 68.2 µM (inactive) in the assay with SW-620. For the same molecule, the GI50 in the assay on A549 was > 100 µM (inactive); in the assay with SNB-19 it was > 100 µM (inactive); with OVCAR-3 it was 7.89 µM (inactive); in the assay with DU-145, > 100 µM (inactive); with K562 it was > 100 µM (inactive); in the assay on SK-MEL-28, 30.3 µM (inactive).
With `CC(=O)Oc1c2oc3ccc(Cl)cc3c(=O)c2c(O)c2ccsc12`, the GI50 in the assay with NCI-H226, with U-251, with EKVX, in the assay on SN12C, in the assay on RXF 393 and in the assay with HOP-62 was > 100 µM (inactive) each time. The GI50 with HOP-92, with M14, in the assay on SF-268, in the assay on COLO 205, with HCC 2998 and with SW-620 was > 100 µM (inactive) throughout. Besides, the GI50 in the assay with A549 was > 100 µM (inactive); in the assay with SNB-19, > 100 µM (inactive); with OVCAR-3 it was > 100 µM (inactive); with DU-145 it was > 100 µM (inactive); in the assay on K562, 60.7 µM (inactive); in the assay on SK-MEL-28, > 100 µM (inactive).
For `COCOCC[C@@H]1CC=CC(NC(=O)OCc2ccccc2)C1/C=C/C(=O)CCC1OCCO1` (some centres not stated), the GI50 was 46.7 µM (inactive) with NCI-H226; 25.7 µM (inactive) in the assay with U-251; 50.1 µM (inactive) in the assay with EKVX; 25.2 µM (inactive) in the assay with SN12C; 29.7 µM (inactive) in the assay with RXF 393; > 79.8 µM (inactive) in the assay with HOP-62. Also, the GI50 is > 54.8 µM (inactive) with HOP-92; 29.5 µM (inactive) in the assay on M14; 16.4 µM (inactive) with NCI-H522; 34 µM (inactive) with SF-268; 20.7 µM (inactive) in the assay with COLO 205; > 63.7 µM (inactive) in the assay on HCC 2998. For the same molecule, the GI50 was 22.8 µM (inactive) with SW-620; 75.5 µM (inactive) with A549; > 100 µM (inactive) in the assay on SNB-19; 27.2 µM (inactive) in the assay with OVCAR-3; 10.5 µM (inactive) in the assay on MOLT-4; 32.1 µM (inactive) in the assay with K562. Further, the GI50 in the assay with SK-MEL-28 is 42.1 µM (inactive).
On to `CC(C)C(C(=O)N1CCC[C@@H]1C(=O)OCc1ccccc1)N(C)C(=O)C(C(C)C)N(C)C(=O)[C@H](Cc1ccccc1)N(C)C(=O)[C@H](NC(=O)OC(C)(C)C)C(C)C` (some centres not stated) (Boc-[dV][NMeF][ξNMeV][ξNMeV][dP]-OBn), for which the GI50 in the assay on NCI-H226 was > 100 µM (inactive); in the assay on U-251 it was > 100 µM (inactive); in the assay on EKVX it was > 65.8 µM (inactive); in the assay on SN12C it was > 100 µM (inactive); in the assay with RXF 393, > 100 µM (inactive); in the assay on HOP-62, > 100 µM (inactive). The GI50 in the assay on HOP-92 was 68.4 µM (inactive); in the assay with M14 it was > 100 µM (inactive); in the assay on NCI-H522, > 100 µM (inactive); in the assay with SF-268, > 86.1 µM (inactive); with COLO 205, > 100 µM (inactive); with HCC 2998, > 100 µM (inactive). In addition, the GI50 was > 100 µM (inactive) in the assay with SW-620; 6.55 µM (inactive) in the assay with A549; > 100 µM (inactive) in the assay with SNB-19; > 56.6 µM (inactive) in the assay with OVCAR-3; 7.94 µM (inactive) with MOLT-4; 13.7 µM (inactive) with K562. In addition, the GI50 with SK-MEL-28 was > 100 µM (inactive).
